Assays:
[1] = biological target: Serine/threonine-protein kinase mTOR (Homo sapiens, UniProt P42345); assay: Inhibition of mTOR (unknown origin)
MDA-MB-468 = assay: cells; conditions: Homo sapiens, MDA-MB-468, 24 h
Description: Antiproliferative activity against human MDA-MB-468 cells assessed as reduction in cell viability incubated for 24 hrs by MTT assay

MDA-MB-231 [2] = assay: Induction of autophagy in human MDA-MB-231 cells assessed as MDC positive ratio at 1 uM incubated for 6 hrs by MDC staining based flow cytometry analysis; assay type: functional
A549 = assay: cells; conditions: Homo sapiens, A549, 24 h
Description: Antiproliferative activity against human A549 cells assessed as reduction in cell viability incubated for 24 hrs by MTT assay

MDA-MB-231 [3] = assay: cells; conditions: Homo sapiens, MDA-MB-231, 24 h
Description: Antiproliferative activity against human MDA-MB-231 cells assessed as reduction in cell viability incubated for 24 hrs by MTT assay

## C/C(=N\NC(=O)c1ccc(C)c(Br)c1)c1ccc(C(F)(F)F)cc1
[1]
  IC50: 4.76 µM
MDA-MB-468
  IC50: 9.91 µM
MDA-MB-231 [2]
  Activity: 18.65%
A549
  IC50: 9.07 µM
MDA-MB-231 [3]
  IC50: 9.3 µM

## C/C(=N\NC(=O)c1cccc(Br)c1)c1ccc(C(=O)NN2CCOCC2)cc1
[1]
  IC50: 4.84 µM
MDA-MB-468
  IC50: 8.17 µM
MDA-MB-231 [2]
  Activity: 17.2%
A549
  IC50: 11.2 µM
MDA-MB-231 [3]
  IC50: 8.11 µM

## C/C(=N\NC(=O)c1ccc(C)c(Br)c1)c1ccncc1
[1]
  IC50: 5.24 µM
MDA-MB-468
  IC50: 8.69 µM
MDA-MB-231 [2]
  Activity: 15.26%
A549
  IC50: 12.4 µM
MDA-MB-231 [3]
  IC50: 11 µM

## CO[C@H]1C[C@@H]2CC[C@@H](C)[C@@](O)(O2)C(=O)C(=O)N2CCCC[C@H]2C(=O)O[C@H]([C@H](C)C[C@@H]2CC[C@@H](O)[C@H](OC)C2)CC(=O)[C@H](C)/C=C(\C)[C@@H](O)[C@@H](OC)C(=O)[C@H](C)C[C@H](C)/C=C/C=C/C=C/1C [SIROLIMUS]
MDA-MB-468
  IC50: 37.2 µM
MDA-MB-231 [2]
  Activity: 31.03%
A549
  IC50: 30.7 µM
MDA-MB-231 [3]
  IC50: 35.8 µM

## CC(NC(=O)Nc1cccc(F)c1)c1ccccc1 (centres undefined)
[1]
  IC50: 16.9 µM
MDA-MB-468
  IC50: 31.9 µM
MDA-MB-231 [2]
  Activity: 8.29%
A549
  IC50: 33 µM
MDA-MB-231 [3]
  IC50: 34.1 µM

## Cc1ccc(C(=O)NCc2ccc(O)cc2)cc1Br
[1]
  IC50: > 30 µM
MDA-MB-468
  IC50: 41.9 µM
MDA-MB-231 [2]
  Activity: 12.73%
A549
  IC50: 33.8 µM
MDA-MB-231 [3]
  IC50: 33.4 µM

## C/C(=N\NC(=O)c1cccc(F)c1)c1ccc(O)cc1O
[1]
  IC50: 4.22 µM
MDA-MB-468
  IC50: 9.24 µM
MDA-MB-231 [2]
  Activity: 15.04%
A549
  IC50: 15.4 µM
MDA-MB-231 [3]
  IC50: 10.8 µM

## C/C(=N\NC(=O)c1ccc(C)c(F)c1)c1ccc(N)cc1
[1]
  IC50: 4.32 µM
MDA-MB-468
  IC50: 9.55 µM
MDA-MB-231 [2]
  Activity: 15.44%
A549
  IC50: 12 µM
MDA-MB-231 [3]
  IC50: 8.4 µM

## C/C(=N\NC(=O)c1ccc(C)c(I)c1)c1ccc(C(F)(F)F)cc1
[1]
  IC50: 1.98 µM
MDA-MB-468
  IC50: 8.76 µM
MDA-MB-231 [2]
  Activity: 14.89%
A549
  IC50: 9.46 µM
MDA-MB-231 [3]
  IC50: 8.3 µM

## C/C(=N\NC(=O)c1cccc(Br)c1)c1ccc(C(=O)O)cc1
[1]
  IC50: 0.69 µM
MDA-MB-468
  IC50: 5.51 µM
MDA-MB-231 [2]
  Activity: 19.83%
A549
  IC50: 7.78 µM
MDA-MB-231 [3]
  IC50: 7.5 µM

## O=C(Nc1ccc(C(F)(F)F)cc1)Nc1cccc(F)c1
[1]
  IC50: 12.6 µM
MDA-MB-468
  IC50: 11.9 µM
MDA-MB-231 [2]
  Activity: 7.22%
A549
  IC50: 11.5 µM
MDA-MB-231 [3]
  IC50: 10.3 µM

## O=C(Nc1ccc(C(F)(F)F)cc1)Nc1nc2ccccc2[nH]1
[1]
  IC50: 23.7 µM
MDA-MB-468
  IC50: 23.7 µM
MDA-MB-231 [2]
  Activity: 8.2%
A549
  IC50: 23.5 µM
MDA-MB-231 [3]
  IC50: 22.8 µM

## C/C(=N\NC(=O)c1ccc(C)c(F)c1)c1ccc(C(=O)Nc2cc(N3CCOCC3)ccn2)cc1
[1]
  IC50: 3.83 µM
MDA-MB-468
  IC50: 12.1 µM
MDA-MB-231 [2]
  Activity: 19.22%
A549
  IC50: 13.9 µM
MDA-MB-231 [3]
  IC50: 13.2 µM

## C/C(=N\NC(=O)c1cccc(Br)c1)c1cc(O)cc(O)c1
[1]
  IC50: 8.2 µM
MDA-MB-468
  IC50: 11 µM
MDA-MB-231 [2]
  Activity: 16.33%
A549
  IC50: 10.3 µM
MDA-MB-231 [3]
  IC50: 9.13 µM

## Cc1ccc(C(=O)NCCc2ccc(O)cc2)cc1Br
[1]
  IC50: > 30 µM
MDA-MB-468
  IC50: 33.7 µM
MDA-MB-231 [2]
  Activity: 11.23%
A549
  IC50: 34 µM
MDA-MB-231 [3]
  IC50: 41.7 µM

## C/C(=N\NC(=O)c1cccc(Br)c1)c1ccc(C(=O)Nc2cc(N3CCOCC3)ccn2)cc1
[1]
  IC50: 2.45 µM
MDA-MB-468
  IC50: 10.2 µM
MDA-MB-231 [2]
  Activity: 20.99%
A549
  IC50: 13.7 µM
MDA-MB-231 [3]
  IC50: 9.21 µM

## O=C(NCc1cc(C(F)(F)F)cc(C(F)(F)F)c1)Nc1cccc(F)c1
[1]
  IC50: 17.6 µM
MDA-MB-468
  IC50: 17.5 µM
MDA-MB-231 [2]
  Activity: 8.77%
A549
  IC50: 12.5 µM
MDA-MB-231 [3]
  IC50: 13.8 µM

## CO[C@H]1C[C@@H]2CC[C@@H](C)[C@@](O)(O2)C(=O)C(=O)N2CCCC[C@H]2C(=O)O[C@H]([C@H](C)C[C@@H]2CC[C@@H](OC(=O)C(C)(CO)CO)[C@H](OC)C2)CC(=O)[C@H](C)/C=C(\C)[C@@H](O)[C@@H](OC)C(=O)[C@H](C)C[C@H](C)/C=C/C=C/C=C/1C [TEMSIROLIMUS]
[1]
  IC50: 2.29 µM
MDA-MB-468
  IC50: 10.9 µM
MDA-MB-231 [2]
  Activity: 15.33%
A549
  IC50: 11.8 µM
MDA-MB-231 [3]
  IC50: 17.6 µM

## C/C(=N\NC(=O)c1ccc(C)c(I)c1)c1ccncc1
[1]
  IC50: 1.66 µM
MDA-MB-468
  IC50: 10.3 µM
MDA-MB-231 [2]
  Activity: 16.25%
A549
  IC50: 11.3 µM
MDA-MB-231 [3]
  IC50: 9.08 µM

## O=C(Nc1cccc(F)c1)Nc1nc2ccccc2[nH]1
[1]
  IC50: 4.93 µM
MDA-MB-468
  IC50: 24.1 µM
MDA-MB-231 [2]
  Activity: 8.32%
A549
  IC50: 19.8 µM
MDA-MB-231 [3]
  IC50: 19 µM
